Source: ChEMBL document CHEMBL4400539, “Discovery of a Novel Chemotype of Histone Lysine Methyltransferase EHMT1/2 (GLP/G9a) Inhibitors: Rational Design, Synthesis, Biological Evaluation, and Co-crystal Structure” (J Med Chem, 2019)

Key:
[1] = biological target: T1, Histone-lysine N-methyltransferase EHMT2 (Homo sapiens, UniProt Q96KQ7); assay: Inhibition of recombinant human G9a using biotinylated-Histone H3 peptide (1 to 21 residues) after 30 mins in presence of SAM by AlphaLISA assay
T1 sequence (Q96KQ7 whole entry): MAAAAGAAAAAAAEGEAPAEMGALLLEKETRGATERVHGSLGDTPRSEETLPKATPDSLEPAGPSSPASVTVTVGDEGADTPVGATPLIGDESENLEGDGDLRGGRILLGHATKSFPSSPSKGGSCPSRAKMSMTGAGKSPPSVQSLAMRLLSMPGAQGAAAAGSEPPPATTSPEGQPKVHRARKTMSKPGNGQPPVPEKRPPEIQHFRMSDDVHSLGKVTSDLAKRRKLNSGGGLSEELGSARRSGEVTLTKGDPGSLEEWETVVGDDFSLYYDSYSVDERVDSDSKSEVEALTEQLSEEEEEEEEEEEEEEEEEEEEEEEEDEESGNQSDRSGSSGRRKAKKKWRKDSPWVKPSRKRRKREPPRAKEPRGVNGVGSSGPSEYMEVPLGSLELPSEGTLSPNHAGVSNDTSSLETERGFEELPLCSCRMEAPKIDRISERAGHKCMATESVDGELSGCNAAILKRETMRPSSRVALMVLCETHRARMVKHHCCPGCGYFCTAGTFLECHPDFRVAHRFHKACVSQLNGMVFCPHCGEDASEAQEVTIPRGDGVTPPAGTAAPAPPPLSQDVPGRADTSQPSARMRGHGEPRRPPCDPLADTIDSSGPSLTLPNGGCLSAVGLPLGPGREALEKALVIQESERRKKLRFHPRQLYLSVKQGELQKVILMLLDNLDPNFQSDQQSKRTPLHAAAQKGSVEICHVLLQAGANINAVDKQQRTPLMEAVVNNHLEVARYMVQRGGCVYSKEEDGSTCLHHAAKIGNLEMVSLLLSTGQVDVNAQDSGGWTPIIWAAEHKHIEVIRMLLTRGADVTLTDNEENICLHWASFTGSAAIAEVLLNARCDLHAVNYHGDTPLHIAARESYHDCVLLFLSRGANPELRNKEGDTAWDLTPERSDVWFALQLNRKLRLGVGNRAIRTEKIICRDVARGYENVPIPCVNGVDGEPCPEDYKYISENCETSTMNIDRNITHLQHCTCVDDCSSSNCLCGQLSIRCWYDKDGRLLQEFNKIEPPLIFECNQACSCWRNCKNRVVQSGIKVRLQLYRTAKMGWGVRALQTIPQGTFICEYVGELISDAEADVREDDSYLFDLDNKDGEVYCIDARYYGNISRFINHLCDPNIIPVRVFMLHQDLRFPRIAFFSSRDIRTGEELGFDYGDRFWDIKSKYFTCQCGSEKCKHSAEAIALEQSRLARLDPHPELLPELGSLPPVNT

[2] = biological target: T1, Histone-lysine N-methyltransferase EHMT2; assay: Inhibition G9a (unknown origin)
[3] = Apparent permeability of the compound after 24 hrs by BBB-PAMPA; format: ADME
[4] = Metabolic stability in human liver microsomes assessed as parent compound turn over percentage at 1 mM preincubated for 5 mins followed by NADPH addition and measured for 60 mins by UHPLC analysis; format: ADME, Microsome; conditions: read-out: Drug metabolism
[5] = Apparent permeability of the compound after 24 hrs by PAMPA; format: ADME

SMILES | IC50 [1] | also measured
COc1cc2c(cc1OCCCN1CCCC1)N=C(c1ccccc1)CN=C2NC1CCN(C(C)C)CC1 | 1.09 µM | 
COc1cc2c(NC3CCN(CCCCCN)CC3)nc(NCCCN(C)C)nc2cc1OCCCCCN |  | IC50 [2]: 0.16 µM
COc1cc2c(NC3CCN(C(C)C)CC3)nc(C3CCCCC3)nc2cc1OCCCN1CCCC1 |  | Papp [3]: 0.19 ×10⁻⁷ cm/s; metabolised at 1 h [4]: 2.93%; Papp [5]: 0.49 ×10⁻⁷ cm/s
COc1cc2c(cc1OCCCN1CCCC1)N=C(C1CCCCC1)CC(NC1CCN(C(C)C)CC1)=N2 | 2.98 µM | 
COc1cc2c(cc1OCCCN1CCCC1)NC(c1ccccc1)CN=C2NC1CCN(C(C)C)CC1 (stereo not drawn) | 2.09 µM | 
COc1cc2c(cc1OCCCN1CCCC1)NC(C1CCCCC1)CN=C2NC1CCN(C(C)C)CC1 (stereo not drawn) | 0.955 µM | 
